Laboratory results: the supplement of paper PMC10307832

Legend:
Assay in all cases: relative viability (nuclei count vs DMSO), 5 days (fraction); higher = more cells survive
[1] = compound: Cc1ccc2nc(NCCN)c3ncc(C)n3c2c1 + Cc1nc(NC(=O)N2CCC[C@H]2C(N)=O)sc1-c1ccnc(C(C)(C)C(F)(F)F)c1 [Alpelisib] (partner 2 µM)
Procedure, shortened: (§1)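 Five library-drug doses in √10 steps were combined with a fixed anchor-drug dose, or a single drug was given alone, by pin tool to lung cancer cell lines in 1536-well plates the day after seeding. Nuclei were stained and counted after 5 days. Relative viability is the nuclei count in treated wells over that in vehicle wells, taken as the median of duplicate plates.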

[2] = compound: Cc1ccc2nc(NCCN)c3ncc(C)n3c2c1 + Cc1nc(Nc2ncc(C(=O)Nc3c(C)cccc3Cl)s2)cc(N2CCN(CCO)CC2)n1 [Dasatinib] (partner 0.075 µM)
Procedure, shortened: as §1

Salubrinal + Foretinib = compound: O=C(/C=C/c1ccccc1)NC(NC(=S)Nc1cccc2cccnc12)C(Cl)(Cl)Cl [Salubrinal] + COc1cc2c(Oc3ccc(NC(=O)C4(C(=O)Nc5ccc(F)cc5)CC4)cc3F)ccnc2cc1OCCCN1CCOCC1 [Foretinib] (partner 0.25 µM)
Procedure, shortened: as §1

Salubrinal + Crizotinib = compound: O=C(/C=C/c1ccccc1)NC(NC(=S)Nc1cccc2cccnc12)C(Cl)(Cl)Cl [Salubrinal] + C[C@@H](Oc1cc(-c2cnn(C3CCNCC3)c2)cnc1N)c1c(Cl)ccc(F)c1Cl [Crizotinib] (partner 1 µM)
Procedure, shortened: as §1

| Cell Line | relative viability ([1]; first compound 0.04 µM) | relative viability ([1]; first compound 0.1265 µM) | relative viability ([1]; first compound 0.4 µM) | relative viability ([1]; first compound 1.265 µM) | relative viability ([1]; first compound 4 µM) | relative viability ([2]; first compound 0.04 µM) | relative viability ([2]; first compound 0.1265 µM) | relative viability ([2]; first compound 0.4 µM) | relative viability ([2]; first compound 1.265 µM) | relative viability ([2]; first compound 4 µM) | relative viability (Salubrinal + Foretinib; first compound 0.08 µM) | relative viability (Salubrinal + Foretinib; first compound 0.253 µM) | relative viability (Salubrinal + Foretinib; first compound 0.8 µM) | relative viability (Salubrinal + Foretinib; first compound 2.53 µM) | relative viability (Salubrinal + Foretinib; first compound 8 µM) | relative viability (Salubrinal + Crizotinib; first compound 0.08 µM) | relative viability (Salubrinal + Crizotinib; first compound 0.253 µM) | relative viability (Salubrinal + Crizotinib; first compound 0.8 µM) | relative viability (Salubrinal + Crizotinib; first compound 2.53 µM) | relative viability (Salubrinal + Crizotinib; first compound 8 µM) |
| --- | --- | --- | --- | --- | --- | --- | --- | --- | --- | --- | --- | --- | --- | --- | --- | --- | --- | --- | --- | --- |
| NCI-H2023 | 0.637 | 0.573 | 0.616 | 0.563 | 0.549 | 0.711 | 0.565 | 0.608 | 0.548 | 0.388 | 1.03 | 0.882 | 0.777 | 0.844 | 0.818 | 0.674 | 0.672 | 0.68 | 0.635 | 0.614 |
| NCI-H2085 | 1.01 | 0.943 | 0.961 | 1.06 | 1.11 | 0.207 | 0.263 | 0.222 | 0.196 | 0.243 | 1.2 | 0.793 | 0.894 | 0.924 | 1.01 | 0.901 | 0.804 | 0.789 | 0.813 | 0.834 |
| NCI-H2087 | 1.07 | 1.15 | 0.998 | 0.963 | 0.998 | 0.893 | 0.85 | 0.767 | 0.87 | 0.791 | 1.12 | 0.881 | 1.13 | 1.36 | 1.02 | 0.984 | 0.758 | 0.913 | 0.867 | 0.865 |
| NCI-H2126 | 0.738 | 0.73 | 0.77 | 0.719 | 0.782 | 0.663 | 0.696 | 0.592 | 0.549 | 0.493 | 1.51 | 1.13 | 1.1 | 1.25 | 1.11 | 1.14 | 0.961 | 1.12 | 1.01 | 1.03 |
| NCI-H2170 | 0.844 | 0.805 | 0.801 | 0.805 | 0.67 | 0.565 | 0.646 | 0.58 | 0.58 | 0.564 | 1.14 | 0.808 | 1.07 | 1.04 | 0.888 | 1.45 | 1.06 | 1.38 | 1.26 | 1.21 |
| NCI-H2228 | 0.626 | 0.639 | 0.974 | 0.832 | 0.613 | 0.496 | 0.456 | 0.455 | 0.505 | 0.377 | 0.976 | 0.875 | 0.953 | 0.844 | 0.868 | 0.496 | 0.446 | 0.632 | 0.353 | 0.362 |
| NCI-H2347 | 1.06 | 0.978 | 1.06 | 0.91 | 1.01 | 0.32 | 0.333 | 0.355 | 0.266 | 0.317 | 0.906 | 1.15 | 1.4 | 0.797 | 1.08 | 0.709 | 0.709 | 0.772 | 0.76 | 0.719 |
| NCI-H2405 | 0.835 | 0.698 | 0.801 | 0.728 | 0.696 | 0.204 | 0.192 | 0.188 | 0.185 | 0.208 | 1.06 | 1.05 | 1.05 | 1.05 | 1.01 | 0.858 | 0.866 | 0.922 | 0.924 | 0.958 |
| NCI-H3122 | 0.88 | 0.942 | 0.812 | 0.779 | 0.855 | 0.78 | 0.901 | 0.707 | 1.02 | 0.869 | 1.07 | 0.924 | 1.03 | 0.986 | 0.964 | 0.285 | 0.277 | 0.255 | 0.295 | 0.276 |
| PC-3 [JPC-3] | 1.03 | 1.08 | 1.05 | 0.983 | 1.03 | 1.11 | 0.995 | 0.857 | 1.01 | 0.932 | 0.99 | 0.918 | 1.07 | 1 | 0.998 | 1.08 | 0.679 | 1.11 | 0.976 | 0.997 |
| PC-14 | 1.03 | 0.893 | 0.92 | 0.896 | 0.806 | 0.285 | 0.276 | 0.299 | 0.206 | 0.0944 | 1.02 | 0.873 | 1.1 | 1 | 0.931 | 0.927 | 0.853 | 0.935 | 0.885 | 0.914 |
| RERF-LC-KJ | 0.843 | 0.769 | 0.784 | 0.762 | 0.81 | 0.873 | 0.698 | 0.757 | 0.748 | 0.503 | 0.959 | 0.699 | 0.941 | 0.921 | 0.706 | 0.81 | 0.718 | 0.803 | 0.806 | 0.887 |
| SK-LU-1 | 1.11 | 0.961 | 1.1 | 1.01 | 0.937 | 0.162 | 0.202 | 0.181 | 0.166 | 0.167 | 0.947 | 0.898 | 0.97 | 0.817 | 0.775 | 1.23 | 0.717 | 1.1 | 0.938 | 0.841 |
| SK-MES-1 | 0.904 | 0.848 | 0.846 | 0.866 | 0.848 | 0.489 | 0.339 | 0.392 | 0.35 | 0.305 | 1.08 | 0.85 | 1.04 | 1.12 | 0.713 | 1.05 | 1 | 1 | 1.02 | 0.908 |
| SW 1573 | 0.81 | 0.667 | 0.871 | 0.572 | 0.676 | 0.576 | 0.534 | 0.468 | 0.48 | 0.244 | 0.875 | 0.719 | 0.979 | 0.954 | 1.07 | 0.653 | 0.747 | 0.866 | 0.781 | 0.898 |
